Columns and labels:
CYP11B2 = CYP11B2 (Homo sapiens (Human), UniProt P19099); assay: G-402 cellular enzyme assay, human CYP11B2 (aldosterone release, HTRF); format: cell-based; details: G-402 cells expressing human CYP11B2, 1 μM Deoxycorticosterone
Description: (§1) Herein we identified the use of the G-402 cell line as a host cell to ectopically express (transiently or stably) enzymes of the CYP11 family. Specifically we developed stable G-402 cells expressing ectopically human CYP11B1, human CYP11B2, human CYP11A1, cynmolgus CYP11B1 or cynomolgus CYP11B2 enzyme activity. Importantly the identified cell line G-402 expresses co-factors (adrenodoxin and adrenodoxin reductase) important for the activity of the CYP11 family and no relevant enzyme activity of the CYP11 family (in comparison to H295R cells) was detected in these cells. Therefore the G-402 cell line is uniquely suited as a host cell for the ectopic expression of enzymes from the CYP11 family.
(§2) G-402 cells can be obtained from ATCC (CRL-1440) and were originally derived from a renal leiomyoblastoma.
(§3) The expression plasmids contains the ORF for either human/cyno CYP11B1 or CYP11B2 under the control of a suitable promoter (CMV-promoter) and a suitable resistance marker (neomycin). Using standard techniques the expression plasmid is transfected into G-402 cells and these cells are then selected for expressing the given resistance markers. Individual cell-clones are then selected and assessed for displaying the desired enzymatic activity using 11-Deoxycorticosterone (Cyp11B2) or 11-Deoxycortisol (Cyp11B1) as a substrate.
(§4) G-402 cells expressing CYP11 constructs were established as described above and maintained in McCoy's 5a Medium Modified, ATCC Catalog No. 30-2007 containing 10% FCS and 400 μg/ml G418 (Geneticin) at 37° C. under an atmosphere of 5% CO2/95% air. Cellular enzyme assays were performed in DMEM/F12 medium containing 2.5% charcoal treated FCS and appropriate concentration of substrate (0.3-10 uM 11-Deoxycorticosterone, 11-Deoxycortisol or Corticosterone). For assaying enzymatic activity, cells were plated onto 96 well plates and incubated for 16 h. An aliquot of the supernatant is then transferred and analyzed for the concentration of the expected product (Aldosterone for CYP11B2; Cortisol for CYP11B1). The concentrations of these steroids can be determined using HTRF assays from CisBio analyzing either Aldosterone or Cortisol.
(§5) Inhibition of the release of produced steroids can be used as a measure of the respective enzyme inhibition by test compounds added during the cellular enzyme assay. The dose dependent inhibition of enzymatic activity by a compound is calculated by means of plotting added inhibitor concentrations (x-axes) vs. measured steroid/product level (y-axes). The inhibition is then calculated by fitting the following 4-parameter sigmoidal function (Morgan-Mercer-Flodin (MMF) model) to the raw data points using the least squares method:
(§6) [formula] wherein, A is the maximum y value, B is the EC50 factor determined using XLFit, C is the minimum y value and D is the slope value.
(§7) EC50 values for compounds claimed herein were tested with the G402-based assay system described. Cyp11B2 enzyme activity was tested in presence of 1 μM Deoxycorticosterone and variable amounts of inhibitors; Cyp11B1 enzyme activity was tested in presence of 1 μM Deoxycortisol and variable amounts of inhibitors.

human CYP11B1 = human CYP11B1 (Homo sapiens (Human), UniProt P15538); assay: G-402 cellular enzyme assay, human CYP11B1 (cortisol release, HTRF); format: cell-based; details: G-402 cells expressing human CYP11B1, 1 μM Deoxycortisol
Chain of human CYP11B1 (P15538 25-503): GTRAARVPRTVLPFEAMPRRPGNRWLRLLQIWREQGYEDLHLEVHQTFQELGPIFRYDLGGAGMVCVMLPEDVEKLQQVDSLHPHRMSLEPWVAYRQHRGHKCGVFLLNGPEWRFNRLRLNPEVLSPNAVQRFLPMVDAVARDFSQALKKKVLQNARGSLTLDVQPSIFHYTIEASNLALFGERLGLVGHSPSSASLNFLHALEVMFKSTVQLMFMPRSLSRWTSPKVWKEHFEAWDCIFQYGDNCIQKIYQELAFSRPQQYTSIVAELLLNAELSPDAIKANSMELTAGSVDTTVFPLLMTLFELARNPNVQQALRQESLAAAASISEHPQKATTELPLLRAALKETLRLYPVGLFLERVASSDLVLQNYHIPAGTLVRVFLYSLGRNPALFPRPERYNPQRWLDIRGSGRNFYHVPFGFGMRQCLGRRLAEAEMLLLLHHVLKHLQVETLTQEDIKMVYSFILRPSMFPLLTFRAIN
Description: as §1, §2, §3, §4, §5, §6, §7

Chain of CYP11B2 (P19099 25-503): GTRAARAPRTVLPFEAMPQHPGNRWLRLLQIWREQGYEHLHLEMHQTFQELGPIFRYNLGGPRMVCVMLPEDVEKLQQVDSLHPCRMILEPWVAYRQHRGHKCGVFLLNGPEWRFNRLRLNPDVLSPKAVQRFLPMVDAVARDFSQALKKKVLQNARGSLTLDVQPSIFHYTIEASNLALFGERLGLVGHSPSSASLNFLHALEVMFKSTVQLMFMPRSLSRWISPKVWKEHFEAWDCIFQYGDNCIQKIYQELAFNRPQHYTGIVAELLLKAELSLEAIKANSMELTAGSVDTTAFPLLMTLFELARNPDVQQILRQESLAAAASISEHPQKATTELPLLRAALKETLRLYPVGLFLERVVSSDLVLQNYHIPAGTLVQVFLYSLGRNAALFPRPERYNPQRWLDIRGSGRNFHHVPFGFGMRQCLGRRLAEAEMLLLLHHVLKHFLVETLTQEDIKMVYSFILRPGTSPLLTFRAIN

| SMILES | EC50 (CYP11B2) [nM] | EC50 (human CYP11B1) [nM] |
| --- | --- | --- |
| Cn1cc(C(=O)N2CC(Nc3cncc(N4CCc5cc(Cl)ccc5C4=O)c3)C2)cn1 [Example 21, 6-Chloro-2-[5-[[1-(1-methylpyrazole-4-carbonyl)azetidin-3-yl]amino]-3-pyridyl]-3,4-dihydroisoquinolin-1-one] | 7 | 16900 |
| Cc1ccncc1C(=O)N1CC(Nc2cncc(N3C(=O)c4ccc(Cl)cc4C3C)c2)C1 (stereo not drawn) [Example 13, 5-Chloro-3-methyl-2-[5-[[1-(4-methylpyridine-3-carbonyl)azetidin-3-yl]amino]pyridin-3-yl]-3H-isoindol-1-one] | 7 | 4900 |
| CC1c2cc(Cl)ccc2C(=O)N1c1cncc(NC2CN(C(=O)c3ncccc3Cl)C2)c1 (stereo not drawn) [Example 12, 5-Chloro-2-[5-[[1-(3-chloropyridine-2-carbonyl)azetidin-3-yl]amino]pyridin-3-yl]-3-methyl-3H-isoindol-1-one] | 18 | 1830 |
| Cc1cncc(C(=O)N2CC(Nc3cncc(N4C(=O)c5ccc(Cl)cc5C4(C)C)c3)C2)c1 [Example 11, 5-Chloro-3,3-dimethyl-2-[5-[[1-(5-methylpyridine-3-carbonyl)azetidin-3-yl]amino]pyridin-3-yl]isoindol-1-one] | 3 | 1950 |
| Cc1ccncc1C(=O)N1CC(Nc2cncc(N3C(=O)c4ccc(Cl)cc4C3(C)C)c2)C1 [Example 10, 5-Chloro-3,3-dimethyl-2-[5-[[1-(4-methylpyridin-3-carbonyl)azetidin-3-yl]amino]pyridin-3-yl]isoindol-1-one] | 11 | 1740 |
| Cc1ccncc1C(=O)N1CC(Nc2cncc(N3CCc4cc(Cl)ccc4C3=O)c2)C1 [Example 16, 6-Chloro-2-[5-[[1-(4-methylpyridine-3-carbonyl)azetidin-3-yl]amino]pyridin-3-yl]-3,4-dihydroisoquinolin-1-one] | 10 | 5340 |

Next, values leading:

| EC50 (CYP11B2) [nM] | EC50 (human CYP11B1) [nM] | SMILES |
| --- | --- | --- |
| 29 | 5810 | C[C@@H]1c2cc(Cl)ccc2C(=O)N1c1cncc(NC2CN(S(=O)(=O)C3CC3)C2)c1 (single isomer, unassigned) [Example 29, (3R or 3S)-5-Chloro-2-[5-[(1-cyclopropylsulfonylazetidin-3-yl)amino]-3-pyridyl]-3-methyl-isoindolin-1-one] |
| 20 | 1130 | C[C@@H]1c2cc(Cl)ccc2C(=O)N1c1cncc(NC2CN(C(=O)c3ncccc3Cl)C2)c1 (single isomer, unassigned) [Example 27, (3R or 3S)-5-Chloro-2-[5-[[1-(3-chloropyridine-2-carbonyl)azetidin-3-yl]amino]-3-pyridyl]-3-methyl-isoindolin-1-one] |
| 27 | 533 | C[C@H]1c2cc(Cl)ccc2C(=O)N1c1cncc(NC2CN(C(=O)c3ncccc3Cl)C2)c1 (single isomer, unassigned) [Example 28, (3S or 3R)-5-Chloro-2-[5-[[1-(3-chloropyridine-2-carbonyl)azetidin-3-yl]amino]-3-pyridyl]-3-methyl-isoindolin-1-one] |
| 12 | 7000 | CC1(C)c2cc(C#N)ccc2C(=O)N1c1cncc(NC2CN(S(=O)(=O)C3CC3)C2)c1 [Example 31, 2-[5-[(1-Cyclopropylsulfonylazetidin-3-yl)amino]-3-pyridyl]-3,3-dimethyl-1-oxo-isoindoline-5-carbonitrile] |
| 30 | 5950 | Cc1noc(C)c1C(=O)N1CC(Nc2cncc(N3C(=O)c4ccc(Cl)cc4C3(C)C)c2)C1 [Example 23, 5-Chloro-2-[5-[[1-(3,5-dimethylisoxazole-4-carbonyl)azetidin-3-yl]amino]-3-pyridyl]-3,3-dimethyl-isoindolin-1-one] |
| 56 | 10600 | Cn1cncc1C(=O)N1CCC(Nc2cncc(N3C(=O)c4ccc(C#N)cc4C3(C)C)c2)CC1 [Example 42, 3,3-Dimethyl-2-[5-[[1-(3-methylimidazole-4-carbonyl)-4-piperidyl]amino]-3-pyridyl]-1-oxo-isoindoline-5-carbonitrile] |

From patent US9695152B2, “3,4-dihydro-2H-isoquinoline-1-one and 2,3-dihydro-isoindol-1-one compounds” (Hoffmann-La Roche Inc., priority 2013, dated 2017)
